Data published in patent US20250221410A1, “SUBSTITUTED 2-C-AZINES AND SALTS THEREOF, AND USE THEREOF AS HERBICIDAL ACTIVE SUBSTANCES” (BAYER AKTIENGESELLSCHAFT, priority 2022, published 2025).

Columns and labels:
POLCO [1] = assay: Pre-emergence herbicide efficacy at 80 g/ha, POLCO; format: in vivo; settings: Polygonum convolvulus, scored visually after about 3 weeks
Summary of the method: (§1)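 Applied to the soil surface directly after sowing, before emergence, as an aqueous WP or EC preparation containing 0.5% additive. Percent efficacy was rated by eye about 3 weeks later in the greenhouse.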

[2] = test system: ABUTH: Abutilon theophrasti; assay: Post-emergence herbicidal efficacy at 80 g/ha, ABUTH; format: in vivo; settings: rated visually after about 3 weeks vs untreated controls, 100% = plants have died, 0% = like control plants
Protocol: (§2) Seeds of monocotyledonous and dicotyledonous weeds and crop plants were placed in sandy loam in plastic or organic planting pots, covered with soil and cultivated in a greenhouse under controlled growth conditions. 2 to 3 weeks after sowing, the test plants were treated at the one-leaf stage. The compounds of the invention, formulated in the form of wettable powders (WP) or as emulsion concentrates (EC), were then sprayed onto the green parts of the plants as aqueous suspension or emulsion with addition of 0.5% additive at a water application rate of 600 l/ha (converted). After the test plants had been kept in the greenhouse under optimum growth conditions for about 3 weeks, the activity of the preparations was rated visually in comparison to untreated controls. For example, 100% activity=the plants have died, 0% activity=like control plants. Tables B1 to B10 below show the effects of selected compounds of the general formula (I) according to Table 1 on various harmful plants and an application rate corresponding to 80 g/ha, which were obtained by the experimental procedure mentioned above.

LOLRI: Lolium rigidum [3] = assay: Pre-emergence herbicide efficacy at 1280 g/ha, LOLRI; format: in vivo; settings: visual scoring after about 3 weeks vs untreated controls
Summary of the method: (§3)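 Efficacy is a visual percentage rating against untreated controls, taken about 3 weeks after soil-surface application to freshly sown, soil-covered seeds in sandy loam.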

VERPE: Veronica persica = assay: Pre-emergence herbicide efficacy at 80 g/ha, VERPE; format: in vivo; settings: scored visually after about 3 weeks
Summary of the method: as §1

KCHSC: Kochia scoparia = assay: Pre-emergence herbicide efficacy at 80 g/ha, KCHSC; format: in vivo; settings: scored visually after about 3 weeks
Description: (§4) Seeds of monocotyledonous and dicotyledonous weed plants and crop plants were placed in plastic or organic planting pots and covered with soil. The compounds of the invention, formulated in the form of wettable powders (WP) or as emulsion concentrates (EC), were then applied to the surface of the covering soil as aqueous suspension or emulsion with addition of 0.5% additive at a water application rate equivalent to 600 l/ha. After the treatment, the pots were placed in a greenhouse and kept under good growth conditions for the test plants. After about 3 weeks, the efficacy of the preparations was scored visually in comparison with untreated controls as percentages. For example, 100% activity=the plants have died, 0% activity=like control plants. Tables D1 to D12 below show the effects of selected compounds of the general formula (I) according to Table 1 on various harmful plants and an application rate corresponding to 80 g/ha, which were obtained by the experimental procedure mentioned above.

VIOTR: Viola tricolor = assay: Post-emergence herbicidal efficacy at 80 g/ha, VIOTR; format: in vivo; settings: visual rating about 3 weeks after treatment vs untreated controls
Summary of the method: (§5)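 One-leaf-stage weeds in sandy loam were treated with aqueous suspensions or emulsions (0.5% additive, 600 l/ha) and held in the greenhouse for about 3 weeks before visual rating on a 0–100% scale versus untreated controls.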

[4] = test system: ALOMY: Alopecurus myosuroides; assay: Post-emergence herbicidal efficacy at 1280 g/ha, ALOMY; format: in vivo; settings: rated visually after about 3 weeks vs untreated controls, 100% = plants have died, 0% = like control plants
Summary of the method: (§6)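 Greenhouse pot test in sandy loam. Plants at the one-leaf stage, 2–3 weeks after sowing, were sprayed post-emergence with WP or EC formulations in water containing 0.5% additive, at 600 L/ha. Activity was scored visually about 3 weeks later against untreated controls (100% = dead, 0% = as control).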

SETVI: Setaria viridis [5] = assay: Post-emergence herbicidal efficacy at 1280 g/ha, SETVI; format: in vivo; settings: visual rating about 3 weeks after treatment vs untreated controls
Summary of the method: as §6

[6] = test system: MATIN: Matricaria inodora; assay: Pre-emergence herbicide efficacy at 1280 g/ha, MATIN; format: in vivo; settings: visual scoring after about 3 weeks vs untreated controls
Summary of the method: as §3

[7] = test system: ECHCG: Echinochloa crus-galli; assay: Pre-emergence herbicide efficacy at 1280 g/ha, ECHCG; format: in vivo; settings: visual scoring after about 3 weeks vs untreated controls
Summary of the method: as §3

LOLRI: Lolium rigidum [8] = assay: Post-emergence herbicidal efficacy at 1280 g/ha, LOLRI; format: in vivo; settings: visual rating about 3 weeks after treatment vs untreated controls
Summary of the method: as §6

POLCO [9] = assay: Post-emergence herbicidal efficacy at 80 g/ha, POLCO; format: in vivo, Polygonum convolvulus; settings: visual rating about 3 weeks after treatment vs untreated controls
Protocol: as §2

[10] = test system: ABUTH: Abutilon theophrasti; assay: Pre-emergence herbicide efficacy at 1280 g/ha, ABUTH; format: in vivo; settings: visual scoring after about 3 weeks vs untreated controls
Summary of the method: as §3

[11] = test system: AMARE: Amaranthus retroflexus; assay: Post-emergence herbicidal efficacy at 80 g/ha, AMARE; format: in vivo; settings: visual rating about 3 weeks after treatment vs untreated controls
Summary of the method: as §5

SETVI: Setaria viridis [12] = assay: Pre-emergence herbicide efficacy at 80 g/ha, SETVI; format: in vivo; settings: scored visually after about 3 weeks
Summary of the method: as §1

[13] = test system: ALOMY: Alopecurus myosuroides; assay: Pre-emergence herbicide efficacy at 80 g/ha, ALOMY; format: in vivo; settings: scored visually after about 3 weeks
Description: as §4

[14] = test system: MATIN: Matricaria inodora; assay: Post-emergence herbicidal efficacy at 1280 g/ha, MATIN; format: in vivo; settings: visual rating about 3 weeks after treatment vs untreated controls
Protocol: Seeds of mono- and dicotyledonous weed plants were placed in plastic pots in sandy loam soil (doubly sown with in each case one species of mono- or dicotyledonous weed plants per pot), covered with soil and cultivated in a greenhouse under controlled growth conditions. 2 to 3 weeks after sowing, the test plants were treated at the one-leaf stage. The compounds of the invention, formulated in the form of wettable powders (WP) or as emulsion concentrates (EC), were applied to the green parts of the plants as aqueous suspension or emulsion with addition of 0.5% additive at a water application rate equivalent to 600 litres per hectare. After the test plants had been kept in the greenhouse under optimum growth conditions for about 3 weeks, the activity of the preparations was rated visually in comparison to untreated controls. For example, 100% activity=the plants have died, 0% activity=like control plants. Tables A1 to A12 below show the effects of selected compounds of the general formula (I) according to Table 1 on various harmful plants and at an application rate corresponding to 1280 g/ha, which were obtained by the trial procedure specified above.

Row | Structure (SMILES) | Pre-emergence efficacy against POLCO in % (POLCO [1]) | Post-emergence efficacy at 80 g/ha against ABUTH in % [2] | Pre-emergence efficacy against LOLRI (LOLRI: Lolium rigidum [3]) | Pre-emergence efficacy against VERPE in % (VERPE: Veronica persica) | Pre-emergence efficacy against KCHSC in % (KCHSC: Kochia scoparia) | Post-emergence efficacy against VIOTR (VIOTR: Viola tricolor) | Post-emergence efficacy at 1280 g/ha against ALOMY in % [4] | Post-emergence efficacy against SETVI (SETVI: Setaria viridis [5]) | Pre-emergence efficacy against MATIN [6] | Pre-emergence efficacy against ECHCG [7] | Post-emergence efficacy against LOLRI (LOLRI: Lolium rigidum [8]) | Post-emergence efficacy against POLCO (POLCO [9]) | Pre-emergence efficacy against ABUTH [10] | Post-emergence efficacy against AMARE [11] | Pre-emergence efficacy against SETVI in % (SETVI: Setaria viridis [12]) | Pre-emergence efficacy against ALOMY in % [13] | Post-emergence efficacy against MATIN [14]
1 | FC(F)c1cc(-c2ccccc2Cc2ncc(Cl)cn2)on1 [Example 1-133] | 80% | 80% | 90% | 90% | 100% | 100% | 90% | 100% | 100% | 100% | 100% | 100% | 100% | 100% | 100% | – | –
2 | Clc1cnc(Cc2c(Cl)cccc2Oc2ncc(Cl)cn2)nc1 [Example 1-56] | 90% | – | 100% | 90% | 90% | 100% | – | 90% | 100% | 100% | 90% | 80% | 100% | 100% | 100% | – | –
3 | Fc1cnc(Oc2cccc(Br)c2Cc2ncc(Cl)cn2)nc1 [Example 1-54] | 80% | – | 100% | 90% | 100% | 100% | 90% | 100% | 100% | 100% | – | 80% | 100% | 100% | 100% | 80% | –
4 | N#Cc1cccc(Oc2ncc(F)cn2)c1Cc1ncc(Cl)cn1 [Example 1-59] | 90% | – | 100% | 90% | 100% | 100% | – | 90% | 100% | 100% | – | – | 100% | 100% | 100% | 80% | 100%
